Test results published in patent publication US20250059174A1, “Pharmaceutical Compounds and Compositions as C-Kit Kinase Inhibitors” (Enanta Pharmaceuticals, Inc., priority 2023, published 2025).

Key:
[1] = target: Recombinant human c-KIT kinase (Homo sapiens (Human), UniProt P10721); test: c-KIT kinase chemiluminescence assay (ADP-Glo); format: biochemical; conditions: ATP 50 μM
Summary of the method: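 Recombinant human c-KIT preincubated 30 min at RT in 40 mM Tris pH 7.5, 20 mM MgCl2, 0.1 mg/mL BSA, 50 μM DTT, then reacted 2 h at RT with ATP and polyEY substrate. ADP-Glo luminescence readout; activity normalized to high/low controls, IC50 and Hill coefficient from inhibitor-versus-normalized-response fit.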

M-07e cells = test: M-07e cellular assay (SCF-mediated cell proliferation); format: cell-based; conditions: Homo sapiens, 72 hours, CellTiter Glo
Summary of the method: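 CellTiter Glo luminescence after 72 h compound exposure in SCF (EC90)-stimulated M-07e cells expressing endogenous human c-KIT.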

Sequence of Recombinant human c-KIT kinase (P10721 26-976): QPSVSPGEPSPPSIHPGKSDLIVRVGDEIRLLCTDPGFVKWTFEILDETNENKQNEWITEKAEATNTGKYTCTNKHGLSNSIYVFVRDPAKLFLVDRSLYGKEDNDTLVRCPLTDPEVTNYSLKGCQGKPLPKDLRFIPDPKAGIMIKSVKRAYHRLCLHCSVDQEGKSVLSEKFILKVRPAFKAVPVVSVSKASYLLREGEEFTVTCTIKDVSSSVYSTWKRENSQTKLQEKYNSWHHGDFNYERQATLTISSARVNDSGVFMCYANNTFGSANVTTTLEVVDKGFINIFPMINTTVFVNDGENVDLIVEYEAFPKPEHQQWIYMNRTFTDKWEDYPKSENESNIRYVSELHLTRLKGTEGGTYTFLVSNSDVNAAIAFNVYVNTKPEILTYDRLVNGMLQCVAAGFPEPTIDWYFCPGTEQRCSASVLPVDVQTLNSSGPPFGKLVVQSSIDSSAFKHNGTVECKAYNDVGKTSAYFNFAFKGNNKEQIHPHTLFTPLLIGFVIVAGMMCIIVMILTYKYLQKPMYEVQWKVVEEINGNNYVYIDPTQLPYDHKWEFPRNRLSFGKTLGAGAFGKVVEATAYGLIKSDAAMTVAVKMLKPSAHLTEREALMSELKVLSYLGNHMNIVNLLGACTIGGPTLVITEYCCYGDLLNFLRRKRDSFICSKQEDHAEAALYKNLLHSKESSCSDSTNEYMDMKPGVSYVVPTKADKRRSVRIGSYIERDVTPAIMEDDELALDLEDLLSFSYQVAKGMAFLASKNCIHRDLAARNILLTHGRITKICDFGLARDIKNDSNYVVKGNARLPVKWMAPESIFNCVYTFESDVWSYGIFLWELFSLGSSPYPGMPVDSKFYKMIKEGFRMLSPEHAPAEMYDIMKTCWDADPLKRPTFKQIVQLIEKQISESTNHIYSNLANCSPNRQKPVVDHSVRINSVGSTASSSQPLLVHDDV

| Compound | IC50 [1] [nM] | EC50 (M-07e cells) [nM] |
| --- | --- | --- |
| Cc1cc2cc(-c3ncc(C(=O)Nc4cc(-c5noc([C@H]6C[C@@H]6F)n5)ccc4C)o3)ccc2[nH]1 [Example 308-27] | < 100 | < 100 |
| Cc1ccc(-c2noc([C@H]3C[C@@H]3F)n2)cc1NC(=O)c1cnc(-c2cccc(NS(C)(=O)=O)c2)o1 [Example 308-28] | 100 to 1000 | 100 to 1000 |
| Cc1ccc(-c2noc([C@H]3C[C@@H]3F)n2)cc1NC(=O)c1cnc(-c2cccc3[nH]ccc23)o1 [Example 308-29] | < 100 | 100 to 1000 |
| CNS(=O)(=O)c1cccc(-c2ncc(C(=O)Nc3cc(-c4noc([C@H]5C[C@@H]5F)n4)ccc3C)o2)c1 [Example 308-30] | 100 to 1000 | 100 to 1000 |
| Cc1ccc(-c2noc([C@H]3C[C@@H]3F)n2)cc1NC(=O)c1cnc(-c2ccc3cn(C)nc3c2)o1 [Example 308-31] | 100 to 1000 | 100 to 1000 |
| Cc1ccc(-c2noc([C@H]3C[C@@H]3F)n2)cc1NC(=O)c1cnc(-c2ccc3cnn(C)c3c2)o1 [Example 308-32] | < 100 | 100 to 1000 |
| Cc1ccc(-c2noc([C@H]3C[C@@H]3F)n2)cc1NC(=O)c1cnc(-c2cccc3c2NC(=O)C3)o1 [Example 308-33] | > 1000 | > 1000 |
| Cc1ccc(-c2noc([C@H]3C[C@@H]3F)n2)cc1NC(=O)c1cnc(-c2cccc3[nH]c(=O)[nH]c23)o1 [Example 308-34] | 100 to 1000 | > 1000 |
| Cc1ccc(-c2noc([C@H]3C[C@@H]3F)n2)cc1NC(=O)c1cnc(-c2ccc3c(c2)oc(=O)n3C)o1 [Example 308-35] | 100 to 1000 | 100 to 1000 |
| Cc1ccc(-c2noc([C@H]3C[C@@H]3F)n2)cc1NC(=O)c1cnc(-c2ccc3c(c2)NCCO3)o1 [Example 308-36] | < 100 | < 100 |
| Cc1ccc(-c2noc([C@H]3C[C@@H]3F)n2)cc1NC(=O)c1cnc(-c2ccc3c(c2)C(C)(C)C(=O)N3)o1 [Example 308-37] | 100 to 1000 | 100 to 1000 |
| Cc1ccc(-c2noc([C@H]3C[C@@H]3F)n2)cc1NC(=O)c1cnc(-c2cccc3nc[nH]c23)o1 [Example 308-38] | 100 to 1000 | 100 to 1000 |
| Cc1ccc(-c2noc([C@H]3C[C@@H]3F)n2)cc1NC(=O)c1cnc(-c2ccc3nc[nH]c3c2)o1 [Example 308-39] | 100 to 1000 | 100 to 1000 |
| Cc1nc2cc(-c3ncc(C(=O)Nc4cc(-c5noc([C@H]6C[C@@H]6F)n5)ccc4C)o3)ccc2[nH]1 [Example 308-40] | < 100 | < 100 |
| Cc1ccc(-c2noc([C@H]3C[C@@H]3F)n2)cc1NC(=O)c1cnc(-c2cccc3cc[nH]c23)o1 [Example 308-41] | 100 to 1000 | > 1000 |
| Cc1ccc(-c2noc([C@H]3C[C@@H]3F)n2)cc1NC(=O)c1cnc(-c2ccc(F)c3[nH]ccc23)o1 [Example 308-42] | 100 to 1000 | 100 to 1000 |
| Cc1ccc(-c2noc([C@H]3C[C@@H]3F)n2)cc1NC(=O)c1cnc(-c2cccc3[nH]ncc23)o1 [Example 308-43] | < 100 | 100 to 1000 |
| Cc1ccc(-c2noc([C@H]3C[C@@H]3F)n2)cc1NC(=O)c1cnc(-c2ccc(F)c3[nH]ncc23)o1 [Example 308-44] | 100 to 1000 | 100 to 1000 |
| Cc1ccc(-c2noc([C@H]3C[C@@H]3F)n2)cc1NC(=O)c1cnc(-c2ccc3nnn(C)c3c2)o1 [Example 308-46] | 100 to 1000 | 100 to 1000 |
| Cc1ccc(-c2noc([C@H]3C[C@@H]3F)n2)cc1NC(=O)c1cnc(-c2ccc(NC(N)=O)cc2)o1 [Example 308-47] | 100 to 1000 | 100 to 1000 |
| COC(=O)Nc1ccc(-c2ncc(C(=O)Nc3cc(-c4noc([C@H]5C[C@@H]5F)n4)ccc3C)o2)cc1 [Example 308-48] | 100 to 1000 | 100 to 1000 |
| Cc1ccc(-c2noc([C@H]3C[C@@H]3F)n2)cc1NC(=O)c1cnc(-c2ccc3c(c2)NC(=O)CO3)o1 [Example 308-52] | 100 to 1000 | 100 to 1000 |
| Cc1ccc(-c2noc([C@H]3C[C@@H]3F)n2)cc1NC(=O)c1cnc(-c2ccc3c(c2)O[C@@H](C)CN3)o1 [Example 308-53] | 100 to 1000 | 100 to 1000 |
| Cc1ccc(-c2noc([C@H]3C[C@@H]3F)n2)cc1NC(=O)c1cnc(-c2ccc3c(c2)O[C@H](C)CN3)o1 [Example 308-54] | 100 to 1000 | 100 to 1000 |
| Cc1ccc(-c2noc([C@H]3C[C@@H]3F)n2)cc1NC(=O)c1cnc(-c2ccc3c(c2)CC(=O)N3C)o1 [Example 308-55] | 100 to 1000 | 100 to 1000 |
| Cc1ccc(-c2noc([C@H]3C[C@@H]3F)n2)cc1NC(=O)c1cnc(-c2ccc3[nH]c4c(c3c2)CCN(C(=O)OC(C)(C)C)C4)o1 [Example 308-56] | 100 to 1000 | 100 to 1000 |
| Cc1ccc(-c2noc([C@H]3C[C@@H]3F)n2)cc1NC(=O)c1cnc(-c2ccc3[nH]c4c(c3c2)CCNC4)o1 [Example 308-57] | < 100 | 100 to 1000 |

| Compound | IC50 [1] [nM] | EC50 (M-07e cells) [nM] |
| --- | --- | --- |
| COC(=O)N1CC(c2nc(-c3ccc(C)c(NC(=O)c4cnc(-c5ccc6c(c5)CC(=O)N6)o4)c3)no2)C1 [Example 308-58] | < 100 | 100 to 1000 |
| COC(=O)N1CC(c2nc(-c3cc(NC(=O)c4cnc(-c5ccc6c(c5)CC(=O)N6)o4)c(C)cc3F)no2)C1 [Example 308-59] | 100 to 1000 | 100 to 1000 |
| Cc1ccc(-c2noc(C3CN(C(=O)OCc4ccccc4)C3)n2)cc1NC(=O)c1cnc(-c2ccc3c(c2)CC(=O)N3)o1 [Example 308-60] | > 1000 | > 1000 |
| Cc1ccc(-c2noc([C@H]3C[C@@H]3F)n2)cc1NC(=O)c1cnc(-c2ccc3c(c2)C(C)C(=O)N3)o1 (stereo partly shown) [Example 308-61] | 100 to 1000 | 100 to 1000 |
| Cc1ccc(-c2noc(C3CN(C(=O)OC(C)C)C3)n2)cc1NC(=O)c1cnc(-c2ccc3c(c2)CC(=O)N3)o1 [Example 308-62] | 100 to 1000 | > 1000 |
| Cc1ccc(-c2noc(C3CN(C(=O)OC4CC4)C3)n2)cc1NC(=O)c1cnc(-c2ccc3c(c2)CC(=O)N3)o1 [Example 308-63] | 100 to 1000 | 100 to 1000 |
| Cc1ccc(-c2noc([C@H]3C[C@@H]3F)n2)cc1NC(=O)c1cnc(-c2ccc(C(C)(C)O)s2)o1 [Example 308] | > 1000 | > 1000 |
| Cc1ncc(-c2nnnn2C)cc1NC(=O)c1cnn2ccc(N3CC4(C3)CC(O)(C(F)F)C4)cc12 [Example 312-1] | > 1000 | > 1000 |
| Cc1ncc(-c2nnn(C)n2)cc1NC(=O)c1cnn2ccc(N3CC4(C3)CC(O)(C(F)F)C4)cc12 [Example 312-2] | 100 to 1000 | < 100 |
| [2H]C([2H])([2H])n1nnnc1-c1cnc(C)c(NC(=O)c2cnn3ccc(N4CC5(C4)CC(O)(C(F)F)C5)cc23)c1 [Example 312-3] | > 1000 | > 1000 |
| [2H]C([2H])([2H])n1nnc(-c2cnc(C)c(NC(=O)c3cnn4ccc(N5CC6(C5)CC(O)(C(F)F)C6)cc34)c2)n1 [Example 312-4] | 100 to 1000 | < 100 |
| Cc1ncc(-c2nnn(CC(F)(F)F)n2)cc1NC(=O)c1cnn2ccc(N3CC4(C3)CC(O)(C(F)F)C4)cc12 [Example 312-5] | > 1000 | < 100 |
| Cc1ncc(-c2nnn(C(C)C)n2)cc1NC(=O)c1cnn2ccc(N3CC4(C3)CC(O)(C(F)F)C4)cc12 [Example 312-6] | > 1000 | < 100 |
| Cc1ncc(-c2nnn(CC3CC3)n2)cc1NC(=O)c1cnn2ccc(N3CC4(C3)CC(O)(C(F)F)C4)cc12 [Example 312-7] | 100 to 1000 | < 100 |
| Cc1ncc(-c2nnn(C3CNC3)n2)cc1NC(=O)c1cnn2ccc(N3CC4(C3)CC(O)(C(F)F)C4)cc12 [Example 312-8] | > 1000 | > 1000 |
| Cc1ncc(-c2nnn(C3CN(C(=O)OC(C)(C)C)C3)n2)cc1NC(=O)c1cnn2ccc(N3CC4(C3)CC(O)(C(F)F)C4)cc12 [Example 312-9] | > 1000 | 100 to 1000 |
| Cc1ncc(-c2nnn(C3CC(F)(F)C3)n2)cc1NC(=O)c1cnn2ccc(N3CC4(C3)CC(O)(C(F)F)C4)cc12 [Example 312] | 100 to 1000 | < 100 |
| Cc1ccc(-c2ncc(OC(F)F)cn2)cc1NC(=O)c1cnn2ccc(N3CC4(C3)CC(O)(C(F)F)C4)cc12 [Example 314] | < 100 | < 100 |
| Cc1ccc(-c2ncc(OC(F)(F)F)cn2)cc1NC(=O)c1cnn2ccc(N3CC4(C3)CC(O)(C(F)F)C4)cc12 [Example 315] | < 100 | < 100 |
| Cc1ncc(-c2ncc(OC(F)F)cn2)cc1NC(=O)c1cnn2ccc(N3CC4(C3)CC(O)(C(F)F)C4)cc12 [Example 316] | 100 to 1000 | 100 to 1000 |
| Cc1ncc(-c2ncc(C3CC3)cn2)cc1NC(=O)c1cnn2ccc(N3CC4(C3)CC(O)(C(F)F)C4)cc12 [Example 317] | 100 to 1000 | < 100 |
| Cc1ccc(-c2nc3cc(F)ccn3n2)cc1NC(=O)c1cnn2ccc(N3CC4(C3)CC(O)(C(F)F)C4)cc12 [Example 318] | < 100 | < 100 |
| Cc1ccc(-c2ncc3c(ccn3C(F)F)n2)cc1NC(=O)c1cnn2ccc(N3CC4(C3)CC(O)(C(F)F)C4)cc12 [Example 319] | < 100 | < 100 |
| Cc1ccc(-c2ncc3cccn3n2)cc1NC(=O)c1cnn2ccc(N3CC4(C3)CC(O)(C(F)F)C4)cc12 [Example 320] | < 100 | < 100 |
| Cc1ccc(-c2nc3n(n2)CCCC3)cc1NC(=O)c1cnn2ccc(N3CC4(C3)CC(O)(C(F)F)C4)cc12 [Example 321] | 100 to 1000 | 100 to 1000 |
| Cc1ccc(-c2nc3n(n2)CCN(C(=O)OC(C)(C)C)C3)cc1NC(=O)c1cnn2ccc(N3CC4(C3)CC(O)(C(F)F)C4)cc12 [Example 322] | < 100 | 100 to 1000 |
